Data taken from patent publication US11345711B2, “8,9-dihydroimidazo[1,2-a]pyrimido[5,4-e]pyrimidin-5(6H)-ones” (IMPACT THERAPEUTICS (SHANGHAI), INC, priority 2016, dated 2022).

Legend:
[1] = tested on: LoVo cells; assay: MTT based cell viability assay on LoVo cells; conditions: Homo sapiens, LoVo, 72 h, 3 d, read-out: IC50, growth inhibition of LoVo cells
Procedure: Determination of the cell growth inhibiting activity of 6-(2-chlorophenyl)-2-((4-(4-methylpiperazin-1-yl)phenyl)amino)-8,9-dihydroimidazo[1,2-a]pyrimido[5,4-e]pyrimidin-5(6H)-one and analogs on LoVo cells using a MTT based cell viability assay
(§1) The thawed LoVo cells were cultured and passaged to the third generation, and the growth state was good and the confluence was about 90%, which began to be used in the experiment. The LoVo cells were digested with trypsin, centrifuged at 800 rpm for 5 min, the supernatant was discarded, resuspended with fresh culture medium, and counted. 6000 Cells are seeded to each well of a 96-well plate. The cells are incubated at 37° C. in a 5% CO2 cell culture incubator overnight. The tested sample (including the tested compound and the reference compound AZD1775) was diluted continuously to 8 concentrations (the last concentration was negative control of DMSO) with a 1:3 and 1:10 dilution in DMSO respectively: 10 μM, 3.3 μM, 1 μM, 0.33 μM, 0.1 μM, 0.033 μM, 0.01 μM, 0 μM (the final concentration of DMSO was 1%). 5 μL of each concentration was added to 120 μL of culture medium (25 times diluted), and the mixture was shaken well. The overnight cells were taken and the culture medium was removed, 195 μL of fresh culture medium was added to each well, and 5 μL of diluted culture medium containing the corresponding concentration of the tested sample was added respectively, and the culture plate was then placed in the 5% CO2 cell culture incubator at 37° C. for 3 d. After removing the original solution and adding 100 μL of fresh serum-free DMEM culture medium containing MTT (0.5 mg/mL) per well, the culture was continued. The original solution was removed after 4 hrs and 100 μl DMSO was added to each well. The 96-well cell culture plates were shaken away from light for 10 min and readed in a multifunctional reader at 552/630/690 nm to give absorption values (OD values). The data were analyzed using a commercial graphic software (Graph Pad Prism 5.0) and the inhibitory activity of the compound on cell proliferation was plotted in terms of cell survival and compound concentration. The IC50 values were fitted by the S-shaped dose-response curve equation as follows: Y=100/(1+10^(Log C-Log IC50)), where C was the concentration of testing compounds.

[2] = biological target: Wee1 (h) (Homo sapiens, UniProt P30291); assay: Wee1 kinase (h) detection method, [γ-33P]-ATP filter assay; type: biochemical
Procedure: Determination of the inhibitory effect of 6-(2-chlorophenyl)-2-((4-(4-methylpiperazin-1-yl)phenyl)amino)-8,9-dihydroimidazo[1,2-a]pyrimido[5,4-e]pyrimidin-5(6H)-one and Analogs on the Enzyme Activity of Wee1 Kinase by Using the Wee1 Kinase (h) Detection Method
Then the stock solution of all compounds under test with 50× concentration in 100% DMSO was added to make the final concentration of 10/1/0.1/0.01 μM, and then mixed the mixture well. The reaction is initiated by the addition of the Mg/ATP mix. After incubation for 40 minutes at room temperature, the reaction is stopped by the addition of phosphoric acid to a concentration of 0.5%. […] Each compound sample is duplicated in duplicate. The negative control was lack of all the components of Wee1 enzyme, and the positive was addition of 30% phosphoric acid to terminate the reaction. The Wee1 inhibitor AZD1775 was detected at 10 μM at the same experiment condition.

[3] = tested on: NCI-H1299 cells; assay: MTT based cell viability assay on NCI-H1299 cells; conditions: Homo sapiens, NCI-H1299 cells, read-out: IC50, growth inhibition of NCI-H1299 cells
Procedure: Determination of the cell growth inhibiting activity of 6-(2-chlorophenyl)-2-((4-(4-methylpiperazin-1-yl)phenyl)amino)-8,9-dihydroimidazo[1,2-a]pyrimido[5,4-e]pyrimidin-5(6H)-one and analogs on NCI-H1299 cells using a MTT based cell viability assay
as §1, with “NCI-H1299” for “LoVo”, “group,” for “medium,”, “1000” for “6000”, “1‰).” for “1%).”, “C−Log” for “C-Log”

Wee1 (h), sequence (P30291 whole entry): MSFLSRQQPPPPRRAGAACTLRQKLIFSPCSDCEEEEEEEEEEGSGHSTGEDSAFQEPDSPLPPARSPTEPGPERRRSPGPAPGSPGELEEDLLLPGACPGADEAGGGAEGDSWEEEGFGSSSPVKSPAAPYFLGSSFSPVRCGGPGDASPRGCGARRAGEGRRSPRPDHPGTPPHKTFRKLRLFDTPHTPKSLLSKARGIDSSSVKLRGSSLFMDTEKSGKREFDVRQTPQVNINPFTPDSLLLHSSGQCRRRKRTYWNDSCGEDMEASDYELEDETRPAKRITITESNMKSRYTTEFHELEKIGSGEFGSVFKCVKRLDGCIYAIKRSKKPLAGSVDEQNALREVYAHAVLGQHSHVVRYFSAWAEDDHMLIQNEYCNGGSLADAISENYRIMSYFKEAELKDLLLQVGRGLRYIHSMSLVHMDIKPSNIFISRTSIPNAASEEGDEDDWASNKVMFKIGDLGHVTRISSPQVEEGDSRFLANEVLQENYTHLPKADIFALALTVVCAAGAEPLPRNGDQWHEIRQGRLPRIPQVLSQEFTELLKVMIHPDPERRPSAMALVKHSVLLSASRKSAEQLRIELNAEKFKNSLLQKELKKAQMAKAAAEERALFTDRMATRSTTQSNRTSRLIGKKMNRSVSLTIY

Compound: CC(=O)N1Cc2cc(Nc3ncc4c(n3)N3CCN=C3N(c3c(F)cccc3Cl)C4=O)ccc2C2(CC2)C1 [Example 11, 6-(2-Chloro-6-fluorophenyl)-2-((2′-acetyl-2′,3′-dihydro-1′H-spiro[cyclopropane-1,4′-isoquinolin]-7′-yl)amino)-8,9-dihydroimidazo[1,2-a]pyrimido[5,4-e]pyrimidin-5(6H)-one]
- IC50 [1]: 0.101 µM
- Inh. (%) of Wee1 kinase enzyme activity ([2]; C 0.01 μm compound): 23%
- Inh. (%) of Wee1 kinase enzyme activity ([2]; C 0.1 μm compound): 85%
- Inh. (%) of Wee1 kinase enzyme activity ([2]; C 1 μm compound): 97%
- IC50 [3]: 0.705 µM

Compound: CN1CCc2ccc(Nc3ncc4c(n3)N3CCN=C3N(c3c(Cl)cccc3Cl)C4=O)cc2C1 [Example 12, 6-(2,6-Dichlorophenyl)-2-((2-methyl-1,2,3,4-tetrahydroisoquinolin-7-yl)amino)-8,9-dihydroimidazo[1,2-a]pyrimido[5,4-e]pyrimidin-5(6H)-one]
- IC50 [1]: 0.219 µM
- Inh. (%) of Wee1 kinase enzyme activity ([2]; C 0.01 μm compound): 32%
- Inh. (%) of Wee1 kinase enzyme activity ([2]; C 0.1 μm compound): 83%
- Inh. (%) of Wee1 kinase enzyme activity ([2]; C 1 μm compound): 98%
- IC50 [3]: 0.232 µM

Compound: CN1Cc2cc(Nc3ncc4c(n3)N3CCN=C3N(c3c(Cl)cccc3Cl)C4=O)ccc2C(C)(C)C1 [Example 13, 6-(2,6-Dichlorophenyl)-2-((2,4,4-trimethyl-1,2,3,4-tetrahydroisoquinolin-7-yl)amino)-8,9-dihydroimidazo[1,2-a]pyrimido[5,4-e]pyrimidin-5(6H)-one]
- IC50 [1]: 0.0767 µM
- Inh. (%) of Wee1 kinase enzyme activity ([2]; C 0.01 μm compound): 29%
- Inh. (%) of Wee1 kinase enzyme activity ([2]; C 0.1 μm compound): 87%
- Inh. (%) of Wee1 kinase enzyme activity ([2]; C 1 μm compound): 100%
- IC50 [3]: 0.101 µM

Compound: CN1Cc2cc(Nc3ncc4c(n3)N3CCN=C3N(c3c(Cl)cccc3Cl)C4=O)ccc2C2(CC2)C1 [Example 14, 6-(2,6-Dichlorophenyl)-2-((2′-methyl-2′,3′-dihydro-1′H-spiro[cyclopropane-1,4′-isoquinolin]-7′-yl)amino)-8,9-dihydroimidazo[1,2-a]pyrimido[5,4-e]pyrimidin-5(6H)-one]
- IC50 [1]: 0.149 µM
- Inh. (%) of Wee1 kinase enzyme activity ([2]; C 0.01 μm compound): 12%
- Inh. (%) of Wee1 kinase enzyme activity ([2]; C 0.1 μm compound): 86%
- Inh. (%) of Wee1 kinase enzyme activity ([2]; C 1 μm compound): 92%
- IC50 [3]: 0.0987 µM

Compound: Cc1cccc(C)c1N1C(=O)c2cnc(Nc3ccc4c(c3)CN(C)CC4)nc2N2CCN=C21 [Example 15, 6-(2,6-Dimethylphenyl)-2-((2-methyl-1,2,3,4-tetrahydroisoquinolin-7-yl)amino)-8,9-dihydroimidazo[1,2-a]pyrimido[5,4-e]pyrimidin-5(6H)-one]
- IC50 [1]: 1.73 µM
- Inh. (%) of Wee1 kinase enzyme activity ([2]; C 1 μm compound): 89%
- IC50 [3]: 0.966 µM

Compound: Cc1cccc(C)c1N1C(=O)c2cnc(Nc3ccc4c(c3)CN(C)CC4(C)C)nc2N2CCN=C21 [Example 16, 6-(2,6-Dimethylphenyl)-2-((2,4,4-trimethyl-1,2,3,4-tetrahydroisoquinolin-7-yl)amino)-8,9-dihydroimidazo[1,2-a]pyrimido[5,4-e]pyrimidin-5(6H)-one]
- IC50 [1]: 4.75 µM
- Inh. (%) of Wee1 kinase enzyme activity ([2]; C 0.01 μm compound): 15%
- Inh. (%) of Wee1 kinase enzyme activity ([2]; C 0.1 μm compound): 59%
- Inh. (%) of Wee1 kinase enzyme activity ([2]; C 1 μm compound): 98%
- IC50 [3]: 0.617 µM

Compound: Cc1cccc(C)c1N1C(=O)c2cnc(Nc3ccc4c(c3)CN(C)CC43CC3)nc2N2CCN=C21 [Example 17, 6-(2,6-Dimethylphenyl)-2-((2′-methyl-2′,3′-dihydro-1′H-spiro[cyclopropane-1,4′-isoquinolin]-7′-yl)amino)-8,9-dihydroimidazo[1,2-a]pyrimido[5,4-e]pyrimidin-5(6H)-one]
- IC50 [1]: 0.29 µM
- Inh. (%) of Wee1 kinase enzyme activity ([2]; C 1 μm compound): 87%
- IC50 [3]: 0.447 µM

Compound: CC(C)N1C(=O)c2cnc(Nc3ccc(N4CCN(C)CC4)cc3)nc2N2CCN=C21 [Example 18, 6-Isopropyl-2-((4-(4-methylpiperazin-1-yl)phenyl)amino)-8,9-dihydroimidazo[1,2-a]pyrimido[5,4-e]pyrimidin-5(6H)-one]
- IC50 [1]: > 1 µM
- Inh. (%) of Wee1 kinase enzyme activity ([2]; C 1 μm compound): 14%
- IC50 [3]: > 10 µM

Compound: CN1CCN(c2ccc(Nc3ncc4c(n3)N3CCN=C3N(C(C)(C)C)C4=O)cc2)CC1 [Example 19, 6-(Tert-butyl)-2-((4-(4-methylpiperazin-1-yl)phenyl)amino)-8,9-dihydroimidazo[1,2-a]pyrimido[5,4-e]pyrimidin-5(6H)-one]
- IC50 [1]: > 100 µM
- Inh. (%) of Wee1 kinase enzyme activity ([2]; C 1 μm compound): 7%
- IC50 [3]: > 10 µM

Compound: CN1CCN(c2ccc(Nc3ncc4c(n3)N3CCN=C3N(C3CC3)C4=O)cc2)CC1 [Example 20, 6-Cyclopropyl-2-((4-(4-methylpiperazin-1-yl)phenyl)amino)-8,9-dihydroimidazo[1,2-a]pyrimido[5,4-e]pyrimidin-5(6H)-one]
- IC50 [1]: > 100 µM
- Inh. (%) of Wee1 kinase enzyme activity ([2]; C 1 μm compound): 9%
- IC50 [3]: > 10 µM

Compound: CN1CCN(c2ccc(Nc3ncc4c(n3)N3CCN=C3N(C3CCCCC3)C4=O)cc2)CC1 [Example 21, 6-Cyclohexyl-2-((4-(4-methylpiperazin-1-yl)phenyl)amino)-8,9-dihydroimidazo[1,2-a]pyrimido[5,4-e]pyrimidin-5(6H)-one]
- IC50 [1]: 2.13 µM
- Inh. (%) of Wee1 kinase enzyme activity ([2]; C 1 μm compound): 9%
- IC50 [3]: 3.3 µM

Compound: C=CCN1C(=O)c2cnc(Nc3ccc(N4CCN(C)CC4)cc3)nc2N2CCN=C12 [Example 22, 6-Allyl-2-((4-(4-methylpiperazin-1-yl)phenyl)amino)-8,9-dihydroimidazo[1,2-a]pyrimido[5,4-e]pyrimidin-5(6H)-one]
- IC50 [1]: > 100 µM
- Inh. (%) of Wee1 kinase enzyme activity ([2]; C 1 μm compound): 8%
- IC50 [3]: > 10 µM

Compound: CN1CCN(c2ccc(Nc3ncc4c(n3)N3CCN=C3N(c3cccs3)C4=O)cc2)CC1 [Example 23, 2-((4-(4-Methylpiperazin-1-yl)phenyl)amino)-6-(thiophen-2-yl)-8,9-dihydroimidazo[1,2-a]pyrimido[5,4-e]pyrimidin-5(6H)-one]
- IC50 [1]: > 3 µM
- Inh. (%) of Wee1 kinase enzyme activity ([2]; C 1 μm compound): 22%
- IC50 [3]: > 10 µM

Compound: CN1CCN(c2ccc(Nc3ncc4c(n3)N3CC(C)(C)N=C3N(c3c(F)cccc3Cl)C4=O)cc2)CC1 [Example 27, 6-(2-Chloro-6-fluorophenyl)-8,8-dimethyl-2-((4-(4-methylpiperazin-1-yl)phenyl)amino)-8,9-dihydroimidazo[1,2-a]pyrimido[5,4-e]pyrimidin-5(6H)-one]
- IC50 [1]: > 100 µM
- Inh. (%) of Wee1 kinase enzyme activity ([2]; C 1 μm compound): 17%
- IC50 [3]: > 10 µM
